Counter-ions that a name gives are not always drawn.
Columns and labels:
[1] = target: T1, α-1b adrenoreceptor (Mesocricetus auratus, UniProt P18841); assay: biochemical; type: binding, hamster; settings: [3H]-prazosin radioligand; cloned receptor in LTK cell membranes; read-out: Radioligand Binding (Ki, nM) 1b (Hamster)
T1 sequence (P18841 1-515): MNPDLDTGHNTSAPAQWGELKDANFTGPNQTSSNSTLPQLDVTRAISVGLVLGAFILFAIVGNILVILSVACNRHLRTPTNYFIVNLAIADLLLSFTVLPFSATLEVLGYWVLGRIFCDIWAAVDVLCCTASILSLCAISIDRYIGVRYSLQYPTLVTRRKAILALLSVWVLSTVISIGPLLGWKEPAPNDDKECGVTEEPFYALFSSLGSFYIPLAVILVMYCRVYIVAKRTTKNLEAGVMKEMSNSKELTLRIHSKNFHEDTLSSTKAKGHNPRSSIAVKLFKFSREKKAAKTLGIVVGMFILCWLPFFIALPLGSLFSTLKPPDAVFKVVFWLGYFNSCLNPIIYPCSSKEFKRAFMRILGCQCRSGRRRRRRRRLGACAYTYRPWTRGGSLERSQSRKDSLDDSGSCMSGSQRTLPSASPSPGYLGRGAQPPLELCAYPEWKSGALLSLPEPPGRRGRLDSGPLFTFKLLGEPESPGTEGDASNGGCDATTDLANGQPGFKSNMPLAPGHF
In short: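 LTK mouse fibroblasts stably transfected with α-1a, α-1b or α-1d cDNA → roller-bottle culture 5 days at 37 °C → membranes in 50 mM Tris-HCl, stored at -70 °C → radioligand binding → scintillation counting.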

[2] = target: T2, α-1A adrenoreceptor (Rattus norvegicus, UniProt P43140); assay: cell-based; settings: phenylephrine-induced contraction; Schild plot; read-out: In Vitro Characterization (pA2) Rat Vas (converted)
T2 sequence (P43140 1-466): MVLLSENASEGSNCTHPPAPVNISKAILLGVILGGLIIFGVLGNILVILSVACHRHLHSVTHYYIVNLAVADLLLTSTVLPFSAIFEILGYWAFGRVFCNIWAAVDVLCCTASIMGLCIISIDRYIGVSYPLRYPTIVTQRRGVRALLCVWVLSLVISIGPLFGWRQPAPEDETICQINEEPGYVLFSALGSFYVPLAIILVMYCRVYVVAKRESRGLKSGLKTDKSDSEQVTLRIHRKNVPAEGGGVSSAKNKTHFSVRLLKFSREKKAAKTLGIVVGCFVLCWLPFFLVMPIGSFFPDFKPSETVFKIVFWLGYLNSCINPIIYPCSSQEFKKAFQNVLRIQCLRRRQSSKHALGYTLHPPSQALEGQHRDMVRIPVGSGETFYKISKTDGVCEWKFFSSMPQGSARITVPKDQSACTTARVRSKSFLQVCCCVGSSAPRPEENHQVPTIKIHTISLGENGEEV
In short: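 Phenylephrine dose-response curves for contraction were repeated against increasing test-agent concentrations. pA2 was derived by Schild plot [[…] vs log molarity of test agent].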

## COc1cccc2c1[C@@H]1CN(CCCCn3c(=O)[nH]c4c(sc5ncccc54)c3=O)C[C@H]1CO2 [Example 44, 3-[4-((3aS,9bR)-trans-9-Methoxy-1,2,3,3a,4,9b-hexahydro-[1]-benzopyrano[3,4-c]pyrrol-2-yl)butyl]-pyrido[3',2':4,5]thieno[3,2-d]pyrimidine-2,4(1H,3H)-dione hydrochloride]
[1]
  Ki: 0.622 nM
[2]
  Kb: 0.11 nM

## COc1cccc2c1[C@@H]1CN(CCCCn3c(=O)[nH]c4c(sc5nc(C)ccc54)c3=O)C[C@H]1CO2 [Example 45, 3-[4-((3aS,9bR)-trans-9-Methoxy-1,2,3,3a,4,9b-hexahydro-[1]-benzopyrano[3,4-c]pyrrol-2-yl)butyl]-7-methyl-pyrido[3',2':4,5]thieno[3,2-d]pyrimidine-2,4(1H,3H)-dione hydrochloride]
[1]
  Ki: 1.34 nM
[2]
  Kb: 0.257 nM

## COc1ccc2c(n1)sc1c(=O)n(CCCCN3C[C@H]4COc5cccc(OC)c5[C@@H]4C3)c(=O)[nH]c12 [Example 46, 3-[4-((3aS,9bR)-trans-9-Methoxy-1,2,3,3a,4,9b-hexahydro-[1]-benzopyrano[3,4-c]pyrrol-2-yl)butyl]-7-methoxy-pyrido[3',2':4,5]thieno[3,2-d]pyrimidine-2,4(1H,3H)-dione hydrochloride]
[1]
  Ki: 2.58 nM
[2]
  Kb: 0.162 nM

## COc1cccc2c1[C@@H]1CN(CCCCn3c(=O)[nH]c4c(sc5nc(Cl)ccc54)c3=O)C[C@H]1CO2 [Example 47, 3-[4-((3aS,9bR)-trans-9-Methoxy-1,2,3,3a,4,9b-hexahydro-[1]-benzopyrano[3,4-c]pyrrol-2-yl)butyl]-7-chloro-pyrido[3',2':4,5]thieno[3,2-d]pyrimidine-2,4(1H,3H)-dione hydrochloride]
[1]
  Ki: 2.4 nM
[2]
  Kb: 1.12 nM

## COc1cccc2c1[C@@H]1CN(CCCCn3c(=O)[nH]c4c(sc5ncc(-c6ccccc6)nc54)c3=O)C[C@H]1CO2 [Example 50, 3-[4-((3aS,9bR)-trans-9-Methoxy-1,2,3,3a,4,9b-hexahydro-[1]-benzopyrano[3,4-c]pyrrol-2-yl)butyl]-8-phenyl-pyrazino[2',3':4,5]thieno[3,2-d]pyrimidine-2,4(1H,3H)-dione hydrochloride]
[1]
  Ki: 20.8 nM
[2]
  Kb: 0.0447 nM

## COc1cccc2c1[C@@H]1CN(CCCCn3c(=O)[nH]c4c(sc5ccc(OC(C)C)nc54)c3=O)C[C@H]1CO2 [Example 51, 3-[4-((3aS,9bR)-trans-9-Methoxy-1,2,3,3a,4,9b-hexahydro-[1]-benzopyrano[3,4-c]pyrrol-2-yl)butyl]-8-isopropoxy-pyrido[2',3':4,5]thieno[3,2-d]pyrimidine-2,4(1H,3H)-dione hydrochloride]
[1]
  Ki: 0.868 nM
[2]
  Kb: 0.631 nM

## COc1cccc2c1[C@@H]1CN(CCCCn3c(=O)[nH]c4c(sc5c(Cl)nccc54)c3=O)C[C@@H]1CO2 [Example 53, 3-[4-((3aR,9bR)-cis-9-Methoxy-1,2,3,3a,4,9b-hexahydro-[1]-benzopyrano[3,4-c]pyrrol-2-yl)butyl]-6-chloro-pyrido[4',3':4,5]thieno[3,2-d]pyrimidine-2,4(1H,3H)-dione]
[1]
  Ki: 9.42 nM
[2]
  Kb: 0.49 nM

## COc1cccc2c1[C@@H]1CCN(CCCCn3c(=O)[nH]c4c(sc5ncc(Cl)nc54)c3=O)C[C@H]1CO2 [Example 97, 3-[4-((4aS,10bR)-trans-10-Methoxy-1,3,4,4a,5,10b-hexahydro-2H-[1]-benzopyrano[3,4-c]pyrido-3-yl)butyl]-8-chloro-pyrazino[2',3':4,5]thieno[3,2-d]pyrimidine-2,4(1H,3H)-dione dihydrochloride]
[1]
  Ki: 4.7 nM
[2]
  Kb: 1.55 nM

— patent EP0942911B1, “BENZOPYRANOPYRROLE AND BENZOPYRANOPYRIDINE ALPHA-1 ADRENERGIC COMPOUNDS” (Abbott Laboratories, priority 1996, dated 1998)
